Like-named read-outs stand apart in the source and are kept apart here.
Experiments:
MDA-MB-231 cells = test: XTT cell viability, MDA-MB-231; type: cell-based; settings: 24 and 48 hours
Method: (§1) FIGS. 8A-8C show results using MDA-MB-231 cells (FIG. 8A) or BXPC3 cells (FIG. 8B), wherein the cells were treated with 5 μM of NC5, Compound III (referred to as “NC5-140-1” in FIGS. 8A-8C), and Compound I (referred to as “NC5-140-2” in FIGS. 8A-8C) for 24-48 hours, wherein the XTT assay was used to determine cell viability. The symbol indicates the significance of NC5 vs. Compounds I and/or III; *p<0.05. Data represent mean±SEM.
(§2) Compound embodiments, compound III and compound I, were also made and evaluated. TNBC cells and PDAC cells were treated with a serial dose of original NC5 and modified NC5 derivatives for 24 and 48 hours. The cell viability will be measured by XTT assay. […] Compound III is referred to as “NC5-140-1” and Compound I is referred to as “NC5-140-2” in FIGS. 8A-8C.

BXPC3 cells = test: XTT cell viability, BXPC3; type: cell-based; settings: 24 and 48 hours
Method: as §1, §2

Sk-Hep1 cells = test: Growth inhibition of Sk-Hep1 cells (cell culture images); type: cell-based; settings: 5 μM, 24 hours
Sk-Hep1 tumor = test: HCC Sk-Hep1 xenograft model; type: in vivo, NSG mice; settings: four-group study, 5.0 μg/g oral gavage
Description: To further test whether the tumor growth inhibition effect of NC5 applied to other solid tumors, the HCC-Sk-Hep1cell line and PDAC-BXPC3 cell line xenograft models were used. Subcutaneous injection of 1.5×10^6 SK-Hep1 or BXPC3 cells in NSG mice, Six-ten days after tumor cell injection, the palpable tumor in NSG mice was confirmed.
(§3) To test the effects of the disclosed compounds on the xenograft mouse models, the HCC-Sk-Hep1 cell line xenograft model in NSG mice and 4T1-Luc orthotopic syngeneic breast tumor model in Balb/c mice was used. After confirming the palpable tumor in NSG or Balb/c mice. […] Compound III is referred to as “NC5-140-1” and Compound I is referred to as “NC5-140-2” in FIGS. 11A-11C.

4T1 breast tumor = test: 4T1-Luc orthotopic syngeneic breast tumor model; type: in vivo, Balb/c mice; settings: 5.0 μg/g oral gavage
Description: Syngeneic orthotopic 4T1 breast tumor-bearing mouse model was established by inoculating 5×10^4 4T1-Luc cells mixed with Matrigel were into the left inguinal fat pad of Balb/c mice from Jackson Laboratories. This orthotopic syngeneic breast tumor model is a tool for preclinical testing of anti-cancer drugs or immunotherapy that require an intact immune system to elicit activity.
as §3

Thermodynamic solubility = type: physicochemical; settings: thermodynamic from solid
Method: In this example, solubility measurement assays were performed using a phosphate buffer (also referred to as “PB”) system and a water system to evaluate thermodynamic solubility. The PB system was at a pH of 7.4 to mimic in vivo environments. For the PB system, the values were determined to be NC5: Thermodynamic Solubility pH=7.4<0.42 μg/mL; Compound III: Thermodynamic Solubility pH=7.4<0.48 μg/mL; and Compound I: Thermodynamic Solubility pH=7.4<0.48 μg/mL. Results for the water assay were as follows: NC5: Thermodynamic Solubility Water<0.42 μg/mL; Compound III: Thermodynamic Solubility Water<0.48 μg/mL; and Compound I: Thermodynamic Solubility Water<0.48 μg/mL.

[1] = tested on: pCrkL (T207) in Sk-Hep1 cells; test: Flow cytometry of H2O2-induced pCrkL, Sk-Hep1; type: cell-based; settings: 50 uM H2O2 1 hour, then 10 uM compound 24 hours
Method: In this example, Sk-Hep1 cells were pretreated with 50 uM H2O2 for 1 hour to induce activation of pCrkL and were then incubated with 10 uM NC5 or Compound III for 24 hours. pCrkL (T207) expression was determined by flow cytometry.

[2] = tested on: PBNK cells killing activity towards MDA-MB-231; test: Cr51 release assay, PBNK killing of MDA-MB-231; type: cell-based; settings: 1 uM overnight
Method: (§4) PBNK cells were incubated with 1 uM NC5 or Compound III overnight, then cells were harvested for Cr51 release assay to check cell cytotoxicity. […] The star symbol indicates the significance of vehicle control vs. NC5 of the indicated E:T ratios. *p<0.05, **p<0.01, n=3.

[3] = tested on: PBNK cells killing activity towards SK-Hep1; test: Cr51 release assay, PBNK killing of SK-Hep1; type: cell-based; settings: 1 uM overnight
Method: as §4

AML cell line (MoLM-13) = test: CCK-8 cell viability, MoLM-13; type: cell-based, human; settings: 1 uM, 5 uM, 10 uM; 48 hours
Method: In this example, activities of NC5, Compound III, and the known chemotherapeutic, Cytarabine, were evaluated in the AML cell line (MoLM-13). MoLM-13 cells were collected and seeded at 5,000 cells/well in 96-well plates. The cells were incubated for 24 hours before the addition of either DMSO control or drug at various concentrations. After an additional 48 hours of incubation, 3 μL of CCK-8 was added to every well and incubated at 37° C. for 3 hours. Absorbance was measured at 460 nm in a plate reader. […] The related absorbance was normalized and plotted as line graphs. p-values were determined through two tails student t-tests (*=p<0.5, **=p<0.01, ***=p<0.001).

HepG2 cell line = test: CCK-8 cell viability, HepG2; type: cell-based; settings: 1 uM, 5 uM, 10 uM; 48 hours
Method: (§5) In this example, activities of NC5, Compound III, and the known chemotherapeutic, Sorafenib, were evaluated in HepG2, SKHep1, Huh7, and MDA468 cell lines. Cells from each cell line were collected and seeded at 5,000 cells/well in 96-well plates. The cells were incubated for 24 hours before the addition of either DMSO control or drug at various concentrations. After an additional 48 hours of incubation, 3 μL of CCK-8 was added to every well and incubated at 37° C. for 3 hours. Absorbance was measured at 460 nm in a plate reader. Cells from each cell line were treated with NC5 and Compound III at various concentrations (1 uM, 5 uM, 10 uM). The related absorbance was normalized and plotted as line graphs. p-values were determined through two tails student t-tests (*=p<0.5, **=p<0.01, ***=p<0.001).

SKHep1 cell line = test: CCK-8 cell viability, SKHep1; type: cell-based; settings: 1 uM, 5 uM, 10 uM; 48 hours
Method: as §5

Huh7 cell line = test: CCK-8 cell viability, Huh7; type: cell-based; settings: 1 uM, 5 uM, 10 uM; 48 hours
Method: as §5

MDA468 cell line = test: CCK-8 cell viability, MDA468; type: cell-based; settings: 1 uM, 5 uM, 10 uM; 48 hours
Method: as §5

CC(C)=CCc1c2c(c3occ(-c4ccc5c(c4)OS(=O)(=O)O5)c(=O)c3c1O)C=CC(C)(C)O2 [Compound III]
toxic effect compared with NC5 (XTT viability) (MDA-MB-231 cells): comparable toxic effect as NC5
toxic effect compared with NC5 (XTT viability) (BXPC3 cells): better toxic effect than NC5
toxic effect compared with NC5 (growth inhibition) (Sk-Hep1 cells): better toxic effect than NC5
tumor growth (Sk-Hep1 tumor): inhibit tumor growth
median survival (Sk-Hep1 tumor; vehicle 26 days): 34.5 days
tumor growth (4T1 breast tumor): steady growth inhibition
median survival (4T1 breast tumor; vehicle 25 days): 39.5 days
solubility thermodynamic (Thermodynamic solubility; aqueous buffer, phosphate buffer (PB) system, pH 7.4, read-out: Thermodynamic Solubility pH=7.4): < 0.48 µg/mL
solubility thermodynamic (Thermodynamic solubility; water system, read-out: Thermodynamic Solubility Water): < 0.48 µg/mL
H2O2 induced pCrkL protein levels [1]: inhibited H2O2 induced pCrkL protein levels
PBNK cells killing activity (Cr51 release) [2]: increased PBNK cells killing activity
PBNK cells killing activity (Cr51 release) [3]: increased PBNK cells killing activity
cell viability (CCK-8) (AML cell line (MoLM-13)): decrease cell viability significantly
cell viability (CCK-8) (HepG2 cell line): decreased cell viability significantly
cell viability (CCK-8) (SKHep1 cell line): decreased cell viability significantly
cell viability (CCK-8) (Huh7 cell line): decreased cell viability significantly
cell viability (CCK-8) (MDA468 cell line): decreased cell viability significantly
